From PMC6836034, “The Effect of Silymarin Flavonolignans and Their Sulfated Conjugates on Platelet Aggregation and Blood Vessels Ex Vivo” (Nutrients, 2019) come the findings set out here.

For this assay, the target named is T1, COX-1 (cyclooxygenase-1) (Ovis aries, UniProt P05979).
T1 construct: gene PTGS1
T1 sequence (P05979 25-600): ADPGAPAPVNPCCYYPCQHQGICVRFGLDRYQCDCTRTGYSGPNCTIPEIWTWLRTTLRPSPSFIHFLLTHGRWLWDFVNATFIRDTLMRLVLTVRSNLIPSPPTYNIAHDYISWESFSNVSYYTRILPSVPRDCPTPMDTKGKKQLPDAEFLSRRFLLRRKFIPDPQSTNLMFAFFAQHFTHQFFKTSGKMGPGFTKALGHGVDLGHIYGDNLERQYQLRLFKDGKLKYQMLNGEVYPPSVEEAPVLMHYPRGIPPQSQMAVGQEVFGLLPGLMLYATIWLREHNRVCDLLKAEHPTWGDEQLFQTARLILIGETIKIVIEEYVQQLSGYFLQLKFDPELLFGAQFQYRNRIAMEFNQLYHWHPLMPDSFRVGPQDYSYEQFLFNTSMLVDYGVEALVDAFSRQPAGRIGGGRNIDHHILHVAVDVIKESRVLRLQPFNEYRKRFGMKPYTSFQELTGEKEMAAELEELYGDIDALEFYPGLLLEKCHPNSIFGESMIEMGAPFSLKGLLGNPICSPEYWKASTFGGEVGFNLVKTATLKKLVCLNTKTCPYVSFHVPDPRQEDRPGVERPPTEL
The assay is described as follows: biochemical.

Consider `COc1cc(C2Oc3cc(-c4oc5cc(O)cc(O)c5c(=O)c4O)ccc3OC2CO)ccc1O` (racemic) [2,3-dehydrosilybin], for which inhibition was half-maximal at 25.2 ± 10.4 µM (IC50).

As a reminder, the IC50 is the point on the concentration scale where inhibition reaches its midpoint.
